Q: With `CCCCCC(CC(=O)Nc1cc(C(N)=O)ccc1C(C)(C)C)c1cc(C(N)=O)c(OC)cc1OC` (centres undefined) as the compound, how does the melting point read?
A: 160 to 163 °C

Q: Which melting point does the source give for `O=c1[nH]c2ccc(CCN3CCN(c4ccc5ncccc5c4)CC3)cc2o1` here?
A: 200 °C

Q: Which melting point does the source give for `COC(=O)[C@@H]1C[C@H](C(=O)OC(C)(C)C)N(C(=O)CNC(=O)OC(C)(C)C)[C@@H]1c1ccccc1F` (racemic) here?
A: 142 °C

Q: For `COP(=O)(Cc1cc(C(C)(C)C)c(O)c(C(C)(C)C)c1)OC`, which melting point is on record?
A: 155 °C

Q: With `Nc1nc2ccccc2c2c1ncn2CC1CCCCO1` (centres undefined) as the compound, how does the melting point read?
A: 206 to 210 °C

Q: With `O=C(O)c1cc(Cl)ccc1SSc1ccc(Cl)cc1C(=O)O` as the compound, how does the melting point read?
A: 320 to 324 °C

Q: Which melting point does the source give for `O=C(NCCCn1cncn1)c1ccc([N+](=O)[O-])o1` here?
A: 176 to 177 °C

Q: For `COCc1cnc2c([N+](=O)[O-])cc(C)cc2c1Cl`, which melting point is on record?
A: 107 to 111 °C

Q: With `O=C(NC1CCC(CCN2CCN(c3nccc4c3CCO4)CC2)CC1)c1ccc(N2CCS(=O)(=O)CC2)cc1` (centres undefined) as the compound, how does the melting point read?
A: 262 °C

Q: For `Cc1cccc2nc(CSc3ncnc4[nH]cnc34)n(-c3ccccc3F)c(=O)c12`, which melting point is on record?
A: 152 °C

Q: With `CC(N)CN(C)C(=O)c1ccccc1` (centres undefined) as the compound, how does the melting point read?
A: 102 °C

Q: Which melting point does the source give for `CC(C)Nc1nc2cc(Cl)c(Cl)cc2n1[C@H]1C[C@@H](CO)[C@H](O)[C@@H]1O` here?
A: 137 to 138 °C

Q: With `CC(CO)N1CCN(c2ccccn2)CC1` (centres undefined) as the compound, how does the melting point read?
A: 62 to 64 °C

Q: For `O=C(N[C@@H](Cc1ccc2ccccc2c1)C(=O)O)OCc1ccccc1`, which melting point is on record?
A: 109 to 111 °C

Q: For `CC[C@H]1[C@H](O)CC(=O)N1c1ccc(C#N)c(Cl)c1`, which melting point is on record?
A: 118 to 120 °C

Q: For `O=S(=O)(NCc1ccncc1)c1ccc(-c2ccccc2Cl)cc1`, which melting point is on record?
A: 138 to 141 °C

Q: Which melting point does the source give for `CCOP(=O)(OCC)c1cc2cc([N+](=O)[O-])c(Cl)cc2[nH]c1=O` here?
A: 258 to 262 °C

Q: With `NC(=O)c1nc(-c2cccc(O)c2)nc2c1[nH]c(=O)n2-c1ccc(Cl)cc1Cl` as the compound, how does the melting point read?
A: 375 to 377 °C

Q: With `Cn1ncnc1COc1nc2c(cc1-c1ccccc1)nnn2-c1ccccc1F` as the compound, how does the melting point read?
A: 144 to 146 °C

Q: With `O=C1c2ccc(N3CCN(c4ccccc4)CC3)nc2CC2CCCCC12` (centres undefined) as the compound, how does the melting point read?
A: 164 to 166 °C

Q: For `CC(C)(C)NCC(O)COc1ccccc1-c1ccc(=S)[nH]n1` (centres undefined), which melting point is on record?
A: 186 to 189 °C

Q: For `CC(=O)N(CCCC(=O)O)c1ccccc1-c1ccccc1`, which melting point is on record?
A: 124 to 125 °C

Q: With `CC(C)NC(C)CCc1nc(Cn2cnc3c2c(=O)n(C)c(=O)n3C)no1` (centres undefined) as the compound, how does the melting point read?
A: 55 to 61 °C

Q: With `Clc1ccc(Oc2ccccc2Oc2ncc(Cl)cn2)nc1` as the compound, how does the melting point read?
A: 108 to 111 °C

Q: Which melting point does the source give for `CC1=Nc2c(C)nn(C)c2C2=NCC(C)(C)N12` here?
A: 280 to 283 °C

Q: For `O=C(CS(=O)(=O)c1ccccc1)NNC(=O)N1Cc2ccccc2Oc2ccc(Cl)cc21`, which melting point is on record?
A: 180 to 183 °C

Q: For `CCOc1ccc2c(c1)n(C1CCCCC1)c(=O)n2Cc1ccc(NC(=O)N(C)C)cc1OC`, which melting point is on record?
A: 250 °C

Q: For `Cc1cc(C)cc(Sc2c(C(C)C)c(=O)[nH]c(=O)n2CC#Cc2ccccc2)c1`, which melting point is on record?
A: 113 to 115 °C

Q: Which melting point does the source give for `CC(CCCO)C1CCC2C3CC=C4CC(OC5CCCCO5)CCC4(C)C3CCC12C` (centres undefined) here?
A: 130 to 131 °C

Q: Which melting point does the source give for `CNC(=O)N(O)C(C)c1ccc(-n2c(C)ccc2C)cc1` (centres undefined) here?
A: 131 to 133 °C

Q: Which melting point does the source give for `Nc1nnc2c3c(c(N4CCCC4)nn12)CCCC3` here?
A: 243 to 244 °C

Q: With `CC(C)(C)c1cc(C(C)(C)C)[nH]n1` as the compound, how does the melting point read?
A: 191 to 193 °C

Q: For `Cc1nn(C)c2c(Cl)nc(C3CC3)nc12`, which melting point is on record?
A: 87 to 90 °C

Q: With `CC1=C(C#N)C(c2cccc([N+](=O)[O-])c2)C(c2nc(CCl)no2)=C(C)N1` (centres undefined) as the compound, how does the melting point read?
A: 204 to 206 °C

Q: For `CCOC(=O)C1=C(C)NC(C)=C(C(=O)OCCN2CCN(C(c3ccccc3)c3ccccc3)CC2)C1c1ccccc1Cl` (centres undefined), which melting point is on record?
A: 76 to 78 °C

Q: With `Cc1ccccc1-n1nnc2cnc3ccccc3c21` as the compound, how does the melting point read?
A: 140 to 142 °C

Q: Which melting point does the source give for `Cc1ccc2c(c1)-n1cc(C(=O)O)nc1CO2` here?
A: 281 to 285 °C

Q: Which melting point does the source give for `NS(=O)(=O)c1ccc(CCN2C(=O)c3ccccc3C2(O)c2ccccc2)cc1` (centres undefined) here?
A: 225 °C

Q: For `CNCC1Cc2cc(C)cc(-c3cccc(OC)c3OC)c2O1` (centres undefined), which melting point is on record?
A: 85 to 89 °C

Reference: a melting point compilation (Tetko et al.; mined from patent text by program, amines drawn as free bases though some values may be those of a salt)
